One data set deals with T1, CETP (Homo sapiens, UniProt P11597).
T1 construct: made in house; host or cells: CHO cells (serum-free conditioned medium)
T1 sequence (P11597 18-493): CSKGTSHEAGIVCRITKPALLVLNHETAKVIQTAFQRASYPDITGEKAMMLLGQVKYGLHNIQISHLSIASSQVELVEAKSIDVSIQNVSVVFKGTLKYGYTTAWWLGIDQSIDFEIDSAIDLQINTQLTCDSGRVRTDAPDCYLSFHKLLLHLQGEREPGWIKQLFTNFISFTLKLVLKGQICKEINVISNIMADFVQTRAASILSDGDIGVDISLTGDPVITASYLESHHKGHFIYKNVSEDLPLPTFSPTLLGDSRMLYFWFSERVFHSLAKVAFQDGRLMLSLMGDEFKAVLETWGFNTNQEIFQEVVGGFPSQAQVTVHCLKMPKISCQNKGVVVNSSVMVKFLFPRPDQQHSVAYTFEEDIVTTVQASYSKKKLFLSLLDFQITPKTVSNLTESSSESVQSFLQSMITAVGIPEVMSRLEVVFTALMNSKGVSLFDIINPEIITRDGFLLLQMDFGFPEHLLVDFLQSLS
Briefly: CETP activity in vitro: transfer of [3H]CE from HDL donor to LDL acceptor particles. The following applies: 50% inhibition of [3H]CE transfer from HDL to LDL, 2 hours at 37° C. Format: biochemical. The method in brief: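 Transfer of radiolabelled cholesteryl ester from HDL to LDL was followed over 2 h at 37 °C in Tris buffer (pH 7.4, 150 mM NaCl, 2 mM EDTA, 1% BSA), using CETP secreted by transfected CHO cells. Radioactivity in dextran sulfate/Mg-precipitated LDL was measured by scintillation counting, giving IC50.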

The structures appear in SMILES notation. Like-named read-outs stand apart in the source and are kept apart here.

Take `COC(=O)c1c(C(F)F)nc(C(F)(F)F)c(C(=O)Sc2ccccc2OC)c1CC(C)C` [Compound 153, Methyl 2-(Difluoromethyl)-4-(2-methylpropyl)-5-{[(2-methoxyphenyl)thio]carbonyl}-6-(trifluoromethyl)-3-pyridinecarboxylate]: the melting point is 100 to 102 °C. Moreover, 100 µM corresponded to half-maximal inhibition against CETP (IC50(μm)) (IC50).
For `COC(=O)c1c(C(F)F)nc(C(F)(F)F)c(C(=O)Sc2cccc(OC)c2)c1CC(C)C` [Compound 154, Methyl 2-(Difluoromethyl)-4-(2-methylpropyl)-5-{[(3-methoxyphenyl)thio]carbonyl}-6-(trifluoromethyl)-3-pyridinecarboxylate], in that order: 87 to 88.5 °C and 100 µM.
In turn, `COC(=O)c1c(C(F)F)nc(C(F)(F)F)c(C(=O)Sc2ccc(C(C)(C)C)cc2C(C)(C)C)c1CC(C)C` [Compound 155, Methyl 2-(Difluoromethyl)-5-{[(2,4-di-t-butylphenyl)thio]carbonyl}-4-(2-methylpropyl)-6-(trifluoromethyl)-3-pyridinecarboxylate] came in with a melting point of 115.5 to 120.5 °C. Besides, on CETP (read-out: IC50(μm)), the IC50 came to 50 µM.
For `COC(=O)c1c(C(F)F)nc(C(F)(F)F)c(C(=O)Sc2ccc(C(C)(C)C)cc2)c1CC(C)C` [Compound 156, Methyl 5-{[(4-t-Butylphenyl)thio]carbonyl}-2-(difluoromethyl)-4-(2-methylpropyl)-6-(trifluoromethyl)-3-pyridinecarboxylate], in that order: 60.5 to 62.5 °C and 100 µM.
Molecule `COC(=O)c1c(C(F)F)nc(C(F)(F)F)c(C(=O)Sc2ccc(C)cc2C)c1CC(C)C` [Compound 158, Methyl 2-(Difluoromethyl)-5-{[(2,4-dimethyl-phenyl)thio]carbonyl}-4-(2-methylpropyl)-6-(trifluoromethyl)-3-pyridinecarboxylate] had a melting point of 96 to 99 °C. Half-maximal inhibition on CETP (IC50(μm)) (IC50) was put at 100 µM.
For `COC(=O)c1c(C(F)F)nc(C(F)(F)F)c(C(=O)Sc2ccc(SC)cc2)c1CC(C)C` [Compound 159, Methyl 2-(Difluoromethyl)-4-(2-methylpropyl)-5-{[(4-methylthiophenyl)thio]carbonyl}-6-(trifluoromethyl)-3-pyridinecarboxylate], in that order: 112 to 114 °C and 80 µM.
Regarding `COC(=O)c1c(C(F)F)nc(C(F)(F)F)c(C(=O)Sc2ccc(C(C)C)cc2Cc2ccc(F)cc2)c1CC(C)C` [Compound 160, Methyl 2-(Difluoromethyl)-4-(2-methylpropyl)-5-{[(2-(4-fluorobenzyl)-4-isopropylphenyl)thio]carbonyl}-6-(trifluoromethyl)-3-pyridinecarboxylate], the melting point is 86.5 to 91 °C. In addition, at CETP (read-out: IC50(μm)), the IC50 came to 60 µM.
For `COC(=O)c1c(C(F)F)nc(C(F)(F)F)c(C(=O)Sc2ccc(F)cc2Cc2ccc(F)cc2)c1CC(C)C` [Compound 161, Methyl 2-(Difluoromethyl)-4-(2-methylpropyl)-5-{[(2-(4-fluorobenzyl)-4-fluorophenyl)thio]carbonyl}-6-(trifluoromethyl)-3-pyridinecarboxylate], in that order: 105 to 107 °C and 70 µM.
Consider `COC(=O)c1c(C(F)F)nc(C(F)(F)F)c(C(=O)Sc2ccc(Cl)cc2)c1CC(C)C` [Compound 162, Methyl 5-{[(4-chlorophenyl)thio]carbonyl}-2-(difluoromethyl)-4-(2-methylpropyl)-6-(trifluoromethyl)-3-pyridinecarboxylate], for which the melting point was in the range of 94 to 96.5 °C. The molecule further returned an IC50 against CETP (IC50(μm)) of 50 µM.
For `COC(=O)c1c(C(F)F)nc(C(F)(F)F)c(C(=O)Sc2cc(Cl)ccc2Cl)c1CC(C)C` [Compound 163, Methyl 5-{[(2,5-Dichlorophenyl)thio]carbonyl}-2-(difluoromethyl)-4-(2-methylpropyl)-6-(trifluoromethyl)-3-pyridinecarboxylate], in that order: 112.5 to 113.5 °C and 65 µM.
In turn, `COC(=O)c1c(C(F)F)nc(C(F)(F)F)c(C(=O)Sc2c(Cl)cccc2Cl)c1CC(C)C` [Compound 164, Methyl 5-{[(2,6-Dichlorophenyl)thio]carbonyl}-2-(difluoromethyl)-4-(2-methylpropyl)-6-(trifluoromethyl)-3-pyridinecarboxylate] had a melting point of 109.5 to 112.5 °C. Also, the IC50 against CETP (IC50(μm)) amounted to 50 µM.
As for `COC(=O)c1c(C(F)F)nc(C(F)(F)F)c(C(=O)Oc2ccccc2[N+](=O)[O-])c1CC(C)C` [Compound 166, 3-Methyl 5-(2-Nitrophenyl) 2-(Difluoromethyl)-4-(2-methylpropyl)-6-(trifluoromethyl)-3,5-pyridicarboxylate], the melting point was in the range of 102.5 to 105.5 °C. Moreover, the IC50 on CETP (read-out: IC50(μm)) is over 100 µM.
`COC(=O)c1c(C(F)F)nc(C(F)(F)F)c(C(=O)Oc2cc(C(C)(C)C)cc(C(C)(C)C)c2)c1CC(C)C` [Compound 167, 3-Methyl 5-(3,5-Di-t-butylphenyl) 2-(Difluoromethyl)-4-(2-methylpropyl)-6-(trifluoromethyl)-3,5-pyridicarboxylate]: the melting point fell in the range of 100 to 103.5 °C. Besides, the IC50 at CETP (read-out: IC50(μm)) turned out to be 60 µM.
For `COC(=O)c1c(C(F)F)nc(C(F)(F)F)c(C(=O)Oc2cc(OC)c(OC)c(OC)c2Cc2ccc(F)cc2)c1CC(C)C` [Compound 171, 3-Methyl 5-[2-(4-Fluorobenzyl)-3,4,5-(trimethoxy)phenyl]2-(Difluoromethyl)-4-(2-methylpropyl)-6-(trifluoromethyl)-3,5-pyridicarboxylate], in that order: 131.5 to 133.5 °C and 70 µM.
For `COC(=O)c1c(C(F)F)nc(C(F)(F)F)c(C(=O)Oc2ccccc2OC)c1CC(C)C` [Compound 172, 3-Methyl 5-(2-Methoxyphenyl) 2-(Difluoromethyl)-4-(2-methylpropyl)-6-(trifluoromethyl)-3,5-pyridicarboxylate], in that order: 73 to 74.5 °C and over 100 µM.
For `COC(=O)c1c(C(F)F)nc(C(F)(F)F)c(C(=O)Oc2ccc(Cl)cc2)c1CC(C)C` [Compound 173, 3-Methyl 5-(4-Chlorophenyl) 2-(Difluoromethyl)-4-(2-methylpropyl)-6-(trifluoromethyl)-3,5-pyridicarboxylate], the melting point was in the range of 81.5 to 82.5 °C. Further, it took 45 µM to reach half-maximal inhibition on CETP (IC50(μm)) (IC50).
For `COC(=O)c1c(C(F)F)nc(C(F)(F)F)c(C(=O)Oc2cc(C)cc(C)c2)c1CC(C)C` [Compound 174, 3-Methyl 5-(3,5-Dimethylphenyl) 2-(Difluoromethyl)-4-(2-methylpropyl)-6-(trifluoromethyl)-3,5-pyridicarboxylate], in that order: 90.5 to 94 °C and 60 µM.
`COC(=O)c1c(C(F)F)nc(C(F)(F)F)c(C(=O)Oc2ccc(C)cc2C)c1CC(C)C` [Compound 177, 3-Methyl 5-(2,4-Dimethylphenyl) 2-(Difluoromethyl)-4-(2-methylpropyl)-6-(trifluoromethyl)-3,5-pyridicarboxylate]: the melting point lay within 95 to 99 °C. The IC50 on CETP (read-out: IC50(μm)) turned out to be 70 µM.

Values taken from patent publication US6794396B2, “Substituted pyridines useful for inhibiting cholesteryl ester transfer protein activity” (Pharmacia Corporation, priority 1998, dated 2004).
